Reference: patent publication US20230138455A1, “METHODS OF DOSING OF APICAL SODIUM-DEPENDENT BILE ACID TRANSPORTER INHIBITORS (ASBTIs)” (Mirum Pharmaceuticals, Inc., priority 2021, published 2023)
Where a name gives a salt, the structure may show the parent alone.

Legend:
[1] = Phase 1 clinical study, incidence of GI TEAEs after Maralixibat 10 mg in fed versus fasted state; type: in vivo, human; conditions: healthy participants
Experimental: (§1) FIG. 2 is pie charts showing the proportion of healthy participants who experienced gastrointestinal (GI) treatment-emergent adverse events (AEs) following ASBTI administration at mealtime versus in the fasted state for each of the three studies. […] In each clinical study, the ASBTI was administered in both a fed and fasted state, and rates of GI AEs were compared.

[2] = test system: fecal bile acid (fBA) excretion; experiment: Effect of maralixibat on fecal bile acid (fBA) excretion in healthy dogs, dosing time relative to mealtime; type: in vivo; conditions: for increase in fBA excretion, change compared with pre-treatment value: day 7
Experimental: FIG. 4 is a bar graph of the effect of maralixibat (MRX) on fecal bile acid (fBA) in dogs: change in fBA excretion from pre-treatment to day 7. The PD impact of ASBTI dosing time to mealtime was investigated in healthy dogs (FIG. 3). […] P<0.01 versus pre-treatment, by one-tail paired t-test. Data are presented as ±SEM (n = 7-8). % = change compared with pre-treatment value. Groups were dosed at the indicated times. Fecal samples were taken 48 hours before treatment initiation and for the last 72 hours of the 7-day treatment period and analyzed for bile acid content.

[3] = Phase 1 clinical study, incidence of GI TEAEs after Maralixibat 30 mg in fed versus fasted state; type: in vivo, human; conditions: healthy participants
Experimental: as §1

[4] = Placebo-controlled trials in patients with ALGS, MRX dosed 30 mins prior to a meal, GI AE rates; type: in vivo, human; conditions: PBO-controlled trials, dosed in the fasted state 30 mins prior to a meal (PBO 44.4%)
Experimental: (§2) AE data from 3 separate phase 1 clinical studies on MRX and VLX in healthy participants were compiled to assess the impact of ASBTI dosing vs mealtime on GI AEs (Table 1, FIG. 1). In each clinical study, the ASBTI was administered in both a fed and fasted state, and rates of GI AEs were compared. Separately, AE data from placebo (PBO)-controlled trials in patients with ALGS, where MRX was dosed 30 mins prior to a meal, allows a comparison of GI AE rates for MRX vs PBO.

[5] = Phase 1 clinical study, incidence of GI TEAEs after Volixibat 75 mg in fed versus fasted state; type: in vivo, human; conditions: healthy participants
Experimental: FIG. 1 depicts study designs, drugs (MRX = maralixibat, VLX = volixibat), doses and at mealtime/fasted timelines for certain embodiments according to the disclosure. *Fasting was started ≥10-12 hours before MRX dosing. ^‡Patients were randomized 1:1 to two cohorts and received sequentially fasted then at mealtime dosing, or at mealtime then fasted dosing.
FIG. 2 is pie charts showing the proportion of healthy participants who experienced gastrointestinal (GI) treatment-emergent adverse events (AEs) following ASBTI administration at mealtime versus in the fasted state for each of the three studies.
as §2

CCCCC1(CCCC)CS(=O)(=O)c2ccc(N(C)C)cc2[C@@H](c2ccc(OCc3ccc(C[N+]45CCN(CC4)CC5)cc3)cc2)[C@H]1O [Maralixibat, maralixibat]
Incidence of GI TEAEs: Any GI TEAE, % of participants ([1]; Fasted (n=6)): 0 (0%) | Incidence of GI TEAEs: Any GI TEAE, number of participants ([1]; Fasted (n=6)): 0 (0%) | Incidence of GI TEAEs: Any GI TEAE, % of participants ([1]; Fed (n=6)): 33% | Incidence of GI TEAEs: Any GI TEAE, number of participants ([1]; Fed (n=6)): 2 | Incidence of GI TEAEs: Diarrhea, % of participants ([1]; Fed (n=6)): 17% | Incidence of GI TEAEs: Diarrhea, number of participants ([1]; Fed (n=6)): 1 | Incidence of GI TEAEs: Nausea, % of participants ([1]; Fed (n=6)): 17% | Incidence of GI TEAEs: Nausea, number of participants ([1]; Fed (n=6)): 1 | increase in fBA excretion, change compared with pre-treatment value ([2]; dosing 30 minutes prior to the meal): 231% | increase in fBA excretion, change compared with pre-treatment value ([2]; dosing 4 hours after the meal): 229% | fBA excretion vs pretreatment baseline ([2]; regardless of dosing time relative to the daily meal, p<0.01 by paired t-test): significantly increased fBA excretion | Incidence of GI TEAEs: Abdominal pain, % of participants ([3]; Fasted (n=12)): 8% | Incidence of GI TEAEs: Abdominal pain, number of participants ([3]; Fasted (n=12)): 1 | Incidence of GI TEAEs: Any GI TEAE, % of participants ([3]; Fasted (n=12)): 50% | Incidence of GI TEAEs: Any GI TEAE, number of participants ([3]; Fasted (n=12)): 6 | Incidence of GI TEAEs: Diarrhea, % of participants ([3]; Fasted (n=12)): 50% | Incidence of GI TEAEs: Diarrhea, number of participants ([3]; Fasted (n=12)): 6 | Incidence of GI TEAEs: Abdominal pain, % of participants ([3]; Fed (n=12)): 42% | Incidence of GI TEAEs: Abdominal pain, number of participants ([3]; Fed (n=12)): 5 | Incidence of GI TEAEs: Anorectal discomfort, % of participants ([3]; Fed (n=12)): 8% | Incidence of GI TEAEs: Anorectal discomfort, number of participants ([3]; Fed (n=12)): 1 | Incidence of GI TEAEs: Any GI TEAE, % of participants ([3]; Fed (n=12)): 100% | Incidence of GI TEAEs: Any GI TEAE, number of participants ([3]; Fed (n=12)): 12 | Incidence of GI TEAEs: Diarrhea, % of participants ([3]; Fed (n=12)): 92% | Incidence of GI TEAEs: Diarrhea, number of participants ([3]; Fed (n=12)): 11 | Incidence of GI TEAEs: Nausea, % of participants ([3]; Fed (n=12)): 25% | Incidence of GI TEAEs: Nausea, number of participants ([3]; Fed (n=12)): 3 | diarrhea reported, frequency in patients [4]: 43.6%

CCCC[C@]1(CC)CS(=O)(=O)c2ccc(N(C)C)cc2[C@@H](c2cccc(NC(=O)N[C@@H]3O[C@H](COS(=O)(=O)O)[C@@H](O)[C@H](OCc4ccccc4)[C@H]3O)c2)[C@H]1O [Volixibat, (2R,3R,4S,5R,6R)-4-benzyloxy-6-{3-[3-((3S,4R,5R)-3-butyl-7-dimethylamino-3-ethyl-4-hydroxy-1,1-dioxo-2,3,4,5-tetrahydro-1H-benzo[b]thiepin-5-yl)-phenyl]-ureido}-3,5-dihydroxy-tetrahydro-pyran-2-ylmethyl) hydrogen sulfate]
Incidence of GI TEAEs: Any GI TEAE, % of participants ([5]; Fasted (n=8)): 0 (0%) | Incidence of GI TEAEs: Any GI TEAE, number of participants ([5]; Fasted (n=8)): 0 (0%) | Incidence of GI TEAEs: Any GI TEAE, % of participants ([5]; Fed (n=8)): 75% | Incidence of GI TEAEs: Any GI TEAE, number of participants ([5]; Fed (n=8)): 6 | Incidence of GI TEAEs: Diarrhea, % of participants ([5]; Fed (n=8)): 50% | Incidence of GI TEAEs: Diarrhea, number of participants ([5]; Fed (n=8)): 4 | Incidence of GI TEAEs: Loose stools, % of participants ([5]; Fed (n=8)): 25% | Incidence of GI TEAEs: Loose stools, number of participants ([5]; Fed (n=8)): 2
